Data on six compounds can be found in US20250163104A1, “MACROCYCLIC IMMUNOMODULATORS” (priority 2021, published 2025).

The target in the assay is T1, human PD-1 / PD-L1-Ig binding on Jurkat cell line over-expressing human PD-1 (Jurkat-PD-1) (Homo sapiens, UniProt Q15116).
T1 construct: expressed in transfected cells; host or cells: Jurkat
Description: Jurkat-PD-1 Cell Binding High-Content Screening Assay (CBA). It is filed as cell-based. To be noted: Jurkat-PD-1 cells, PE-labeled PD-L1-Ig 20 nM final; read-out: Jurkat HPD1_PDL1 IC50. The method, boiled down: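 Read-out: high-content imaging of PE-tagged PD-L1-Ig bound to Jurkat cells overexpressing human PD-1, after fixation with 4% paraformaldehyde and Hoechst 33342 nuclear staining. Ligand was used at 20 nM final for 1 hour, after a 2 h compound exposure at 37° C in serum-containing DMEM.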

Where a SMILES comes first, the peptide text is derived from it. Bridges are numbered along the chain shown (N, C = ends). [ ]: non-standard residue; d: D form. The star is where a group is joined. Phe(4-COOH) = N[C@@H](Cc1ccc(C(=O)O)cc1)C(=O)O; Bip = N[C@@H](Cc1ccc(-c2ccccc2)cc1)C(=O)O; Phe(3-Me) = Cc1cccc(C[C@H](N)C(=O)O)c1; Val(3-OH) = CC(C)(O)[C@H](N)C(=O)O; 3Pal = N[C@@H](Cc1cccnc1)C(=O)O; 4Pal = N[C@@H](Cc1ccncc1)C(=O)O; Cha = N[C@@H](CC1CCCCC1)C(=O)O; Cit = NC(=O)NCCC[C@H](N)C(=O)O; dCha = N[C@H](CC1CCCCC1)C(=O)O; Carboxymethyl = O=C(O)C*; Orn = NCCC[C@H](N)C(=O)O; Pra = C#CC[C@H](N)C(=O)O; Dab = NCC[C@H](N)C(=O)O; Dap = NC[C@H](N)C(=O)O

T1 sequence (Q15116 25-288): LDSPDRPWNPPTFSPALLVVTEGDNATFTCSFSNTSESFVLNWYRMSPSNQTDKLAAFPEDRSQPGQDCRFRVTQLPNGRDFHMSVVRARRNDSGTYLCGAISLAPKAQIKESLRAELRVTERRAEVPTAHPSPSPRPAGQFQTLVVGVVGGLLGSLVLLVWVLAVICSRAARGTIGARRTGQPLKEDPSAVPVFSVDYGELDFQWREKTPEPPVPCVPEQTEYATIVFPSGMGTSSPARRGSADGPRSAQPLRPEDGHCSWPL

What is called IC50 is the concentration that inhibits the measured activity by half. For the compound `CC[C@H](C)[C@@H]1NC(=O)[C@H](Cc2ccc(-c3ccccc3)cc2)NC(=O)[C@H](C(C)C)NC(=O)[C@H](Cc2c[nH]c3ccccc23)NC(=O)[C@H](CC(=O)O)NC(=O)[C@H](Cc2ccncc2)NC(=O)[C@H](Cc2ccc(OCC(=O)O)cc2)NC(=O)CSC[C@@H](C(=O)N[C@@H](C)C(N)=O)NC(=O)[C@H]([C@@H](C)O)NC(=O)[C@H](C(C)C)NC(=O)[C@H](CC2CCCCC2)NC(=O)[C@H](CCN)NC(=O)[C@@H](CC(C)C)NC(=O)[C@H](CCCN)NC1=O` [Compound 1332], the IC50 stood at 11.7 nM.

As to `CC(C)C[C@H]1NC(=O)[C@H](CCCN)NC(=O)[C@H](C(C)C)NC(=O)[C@H](Cc2ccc(-c3ccccc3)cc2)NC(=O)[C@H](C(C)C)NC(=O)[C@H](Cc2c[nH]c3ccccc23)NC(=O)[C@H](CC(=O)O)NC(=O)[C@H](Cc2ccc(C(=O)O)cc2)NC(=O)[C@H](Cc2ccc(OCC(=O)O)cc2)NC(=O)CSC[C@@H](C(=O)N[C@@H](C)C(N)=O)NC(=O)[C@H]([C@@H](C)O)NC(=O)[C@H](C(C)C)NC(=O)[C@H](Cc2ccc(O)cc2)NC(=O)[C@H](CCN)NC1=O` [Compound 1682] ({CH2CO}-Y(Carboxymethyl)[Phe(4-COOH)]DWV[Bip]V[Orn][dL][Dab]YVTCA-NH2; thioether N-14), the IC50 came out at 66 nM.

With `CC(C)[C@@H]1NC(=O)[C@H](Cc2c[nH]c3ccccc23)NC(=O)[C@H](CC(=O)O)NC(=O)[C@H](Cc2ccncc2)NC(=O)[C@H](Cc2ccc(OCC(=O)O)cc2)NC(=O)CSC[C@@H](C(=O)N[C@@H](C)C(N)=O)NC(=O)[C@H]([C@@H](C)O)NC(=O)[C@H](C(C)C)NC(=O)[C@H](CC2CCCCC2)NC(=O)[C@H](CCN)NC(=O)[C@@H](CC2CCCCC2)NC(=O)[C@H](CCCN)NC(=O)[C@H](CCCNC(N)=O)NC(=O)[C@H](Cc2ccc(-c3ccccc3)cc2)NC1=O` [Compound 1645] ({CH2CO}-Y(Carboxymethyl)[4Pal]DWV[Bip][Cit][Orn][dCha][Dab][Cha]VTCA-NH2; thioether N-14), the IC50 came out at 20.3 nM.

`CC(C)C[C@@H]1NC(=O)[C@H](CCN)NC(=O)[C@@H](CC(C)C)NC(=O)[C@H](CCCN)NC(=O)[C@H](C(C)C)NC(=O)[C@H](Cc2ccc(-c3ccccc3)cc2)NC(=O)[C@H](C(C)C)NC(=O)[C@H](Cc2c[nH]c3ccccc23)NC(=O)[C@H](CC(=O)O)NC(=O)[C@H](Cc2ccc(O)cc2)NC(=O)[C@H](Cc2ccncc2)NC(=O)CSC[C@@H](C(=O)N[C@@H](C)C(N)=O)NC(=O)[C@H]([C@@H](C)O)NC(=O)[C@H](C(C)C)NC1=O` [Compound 1047] ({CH2CO}-[4Pal]YDWV[Bip]V[Orn][dL][Dab]LVTCA-NH2; thioether N-14): the IC50 was determined as 6.7 nM.

As to `C#CC[C@H](NC(=O)CNC(=O)[C@@H]1CSCC(=O)N[C@@H](CN)C(=O)N[C@@H](Cc2ccc(OCC(=O)O)cc2)C(=O)N[C@@H](CC(=O)O)C(=O)N[C@@H](Cc2cccc(C)c2)C(=O)N[C@@H](Cc2ccc(OCC(=O)O)cc2)C(=O)N[C@@H](Cc2ccc(-c3ccccc3)cc2)C(=O)N[C@@H](Cc2ccc(OCC(=O)O)cc2)C(=O)N[C@@H](CCCN)C(=O)N[C@H](CC(C)C)C(=O)N[C@@H](CCN)C(=O)N[C@@H](CC2CCCCC2)C(=O)N[C@@H](C(C)(C)O)C(=O)N[C@@H](CO)C(=O)N1)C(N)=O` [Compound 2321] ({CH2CO}-[Dap]Y(Carboxymethyl)D[Phe(3-Me)]Y(Carboxymethyl)[Bip]Y(Carboxymethyl)[Orn][dL][Dab][Cha][Val(3-OH)]SCG[Pra]-NH2; thioether N-14), the IC50 came to 19.3 nM.

For `CC(C)C[C@H]1NC(=O)[C@H](CCCN)NC(=O)[C@H](CCC(=O)O)NC(=O)[C@H](Cc2ccc(-c3ccccc3)cc2)NC(=O)[C@H](C(C)C)NC(=O)[C@H](Cc2c[nH]c3ccccc23)NC(=O)[C@H](CC(=O)O)NC(=O)[C@H](Cc2cccnc2)NC(=O)[C@H](Cc2ccncc2)NC(=O)CSC[C@@H](C(=O)N[C@@H](C)C(N)=O)NC(=O)[C@H]([C@@H](C)O)NC(=O)[C@H](C(C)C)NC(=O)[C@H](CC2CCCCC2)NC(=O)[C@H](CCN)NC1=O` [Compound 2174] ({CH2CO}-[4Pal][3Pal]DWV[Bip]E[Orn][dL][Dab][Cha]VTCA-NH2; thioether N-14), the IC50 was 17.7 nM.
